Reference: ChEMBL document CHEMBL4340536, “Design, synthesis and structure-activity relationship study of aminopyridine derivatives as novel inhibitors of Janus kinase 2” (Bioorg Med Chem Lett, 2019)
pIC50: −log10 of the molar value. One block for each compound: values may come before it. Calls of active or inactive are those of the source. The calls are words filed in the database; no cut-off is given here.

Legend:
[1] = tested on: HEL; test: Antiproliferative activity against HEL cells harboring JAK2 V617F mutant measured after 3 days by CCK8 assay; type: functional, cell-based; details: Homo sapiens, 72 h
[2] = molecular target: T1, Tyrosine-protein kinase JAK2 (Homo sapiens, UniProt O60674); test: Inhibition of human recombinant N-terminal hexahistidine tagged JAK2 JH1 catalytic domain (835 to 1132 residues) expressed in baculovirus infected Sf9 cells using Tyr6 peptide as substrate incubated for 30 secs under shaking condition measured after 1 hr by Z'-LYTE assay
T1 sequence (O60674 whole entry, the tested form may be a part): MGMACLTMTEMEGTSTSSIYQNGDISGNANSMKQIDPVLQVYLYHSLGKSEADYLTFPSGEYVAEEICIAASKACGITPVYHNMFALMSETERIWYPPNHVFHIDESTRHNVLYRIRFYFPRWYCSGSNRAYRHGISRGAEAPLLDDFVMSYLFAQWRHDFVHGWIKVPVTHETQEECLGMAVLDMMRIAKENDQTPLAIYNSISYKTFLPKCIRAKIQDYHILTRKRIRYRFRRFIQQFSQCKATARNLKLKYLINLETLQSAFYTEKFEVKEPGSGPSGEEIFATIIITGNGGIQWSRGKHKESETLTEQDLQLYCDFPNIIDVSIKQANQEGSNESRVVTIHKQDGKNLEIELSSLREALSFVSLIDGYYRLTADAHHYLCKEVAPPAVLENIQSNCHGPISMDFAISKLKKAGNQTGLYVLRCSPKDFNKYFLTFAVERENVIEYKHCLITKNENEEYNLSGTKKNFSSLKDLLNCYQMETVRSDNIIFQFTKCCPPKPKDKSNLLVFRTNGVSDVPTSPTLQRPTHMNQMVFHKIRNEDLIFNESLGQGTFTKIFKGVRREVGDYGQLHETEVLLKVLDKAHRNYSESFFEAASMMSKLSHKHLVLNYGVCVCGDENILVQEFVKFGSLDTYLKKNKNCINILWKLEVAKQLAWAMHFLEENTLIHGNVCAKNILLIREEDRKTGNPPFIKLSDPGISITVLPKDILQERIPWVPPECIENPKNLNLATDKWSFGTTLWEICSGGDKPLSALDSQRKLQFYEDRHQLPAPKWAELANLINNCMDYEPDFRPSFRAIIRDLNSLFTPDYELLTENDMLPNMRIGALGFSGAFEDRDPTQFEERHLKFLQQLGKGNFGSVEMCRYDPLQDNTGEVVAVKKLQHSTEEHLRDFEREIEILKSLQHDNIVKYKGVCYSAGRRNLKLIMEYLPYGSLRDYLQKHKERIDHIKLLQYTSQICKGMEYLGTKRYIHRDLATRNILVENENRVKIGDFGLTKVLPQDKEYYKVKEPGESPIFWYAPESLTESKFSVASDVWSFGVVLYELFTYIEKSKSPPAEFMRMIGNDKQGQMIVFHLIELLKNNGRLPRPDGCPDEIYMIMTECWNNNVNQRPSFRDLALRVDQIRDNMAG

[3] = molecular target: T1, Tyrosine-protein kinase JAK2; test: Inhibition of human recombinant N-terminal hexahistidine tagged JAK2 JH1 catalytic domain (835 to 1132 residues) expressed in baculovirus infected Sf9 cells at 1 uM using Tyr6 peptide as substrate incubated for 30 secs under shaking condition measured after 1 hr by Z'-LYTE assay relative to control
[4] = species: Homo sapiens; test: Selectivity ratio of IC50 for human recombinant N-terminal hexahistidine tagged JAK1 JH1 catalytic domain (854 to 1154 residues) expressed in baculovirus infected Sf9 cells to IC50 for human recombinant N-terminal hexahistidine tagged JAK2 JH1 catalytic domain (835 to 1132 residues) expressed in baculovirus infected Sf9 cells
[5] = species: Homo sapiens; test: Selectivity ratio of IC50 for human recombinant C-terminal hexahistidine tagged JAK3 JH1 catalytic domain (811 to 1124 residues) expressed in baculovirus infected Sf9 cells to IC50 for human recombinant N-terminal hexahistidine tagged JAK2 JH1 catalytic domain (835 to 1132 residues) expressed in baculovirus infected Sf9 cells
[6] = molecular target: Non-receptor tyrosine-protein kinase TYK2 (Homo sapiens, UniProt P29597); test: Inhibition of TYK2 (unknown origin) using peptide as substrate preincubated for 10 mins followed by substrate addition by mobility shift assay
Sequence of Non-receptor tyrosine-protein kinase TYK2 (P29597 whole entry, the tested form may be a part): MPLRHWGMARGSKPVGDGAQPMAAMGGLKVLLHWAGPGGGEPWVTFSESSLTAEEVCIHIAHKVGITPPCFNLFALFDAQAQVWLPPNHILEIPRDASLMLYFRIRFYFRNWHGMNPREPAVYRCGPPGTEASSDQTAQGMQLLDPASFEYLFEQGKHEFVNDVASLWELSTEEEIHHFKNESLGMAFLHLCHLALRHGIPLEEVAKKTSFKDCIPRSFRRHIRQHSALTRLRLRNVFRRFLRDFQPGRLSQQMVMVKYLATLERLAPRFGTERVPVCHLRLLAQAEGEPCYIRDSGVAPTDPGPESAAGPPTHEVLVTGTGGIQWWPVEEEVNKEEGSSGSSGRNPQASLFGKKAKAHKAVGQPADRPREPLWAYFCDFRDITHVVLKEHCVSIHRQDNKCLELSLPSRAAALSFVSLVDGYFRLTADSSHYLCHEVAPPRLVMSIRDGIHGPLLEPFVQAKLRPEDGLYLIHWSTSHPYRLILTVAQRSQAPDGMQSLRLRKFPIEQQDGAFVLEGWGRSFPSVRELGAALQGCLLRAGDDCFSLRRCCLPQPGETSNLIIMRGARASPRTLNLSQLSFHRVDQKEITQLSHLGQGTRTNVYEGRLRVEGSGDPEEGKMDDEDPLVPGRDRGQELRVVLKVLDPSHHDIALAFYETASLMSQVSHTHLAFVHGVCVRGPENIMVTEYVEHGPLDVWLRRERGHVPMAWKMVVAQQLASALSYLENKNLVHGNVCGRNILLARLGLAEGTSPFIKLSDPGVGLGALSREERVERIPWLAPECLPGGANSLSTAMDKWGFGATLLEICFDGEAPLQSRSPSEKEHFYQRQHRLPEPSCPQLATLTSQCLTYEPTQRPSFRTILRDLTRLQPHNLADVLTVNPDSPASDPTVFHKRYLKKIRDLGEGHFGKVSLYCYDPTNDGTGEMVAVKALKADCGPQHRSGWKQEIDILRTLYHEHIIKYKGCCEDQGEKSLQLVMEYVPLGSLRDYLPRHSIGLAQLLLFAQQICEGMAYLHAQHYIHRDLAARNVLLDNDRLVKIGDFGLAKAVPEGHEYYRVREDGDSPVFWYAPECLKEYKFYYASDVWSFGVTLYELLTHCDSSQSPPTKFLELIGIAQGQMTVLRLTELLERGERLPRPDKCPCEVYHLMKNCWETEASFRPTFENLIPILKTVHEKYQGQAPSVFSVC

[7] = species: Homo sapiens; test: Selectivity ratio of IC50 for TYK2 (unknown origin) to IC50 for human recombinant N-terminal hexahistidine tagged JAK2 JH1 catalytic domain (835 to 1132 residues) expressed in baculovirus infected Sf9 cells
[8] = molecular target: T2, Tyrosine-protein kinase JAK3 (Homo sapiens, UniProt P52333); test: Inhibition of human recombinant C-terminal hexahistidine tagged JAK3 JH1 catalytic domain (811 to 1124 residues) expressed in baculovirus infected Sf9 cells using Tyr6 peptide as substrate incubated for 30 secs under shaking condition measured after 1 hr by Z'-LYTE assay
T2 sequence (P52333 whole entry): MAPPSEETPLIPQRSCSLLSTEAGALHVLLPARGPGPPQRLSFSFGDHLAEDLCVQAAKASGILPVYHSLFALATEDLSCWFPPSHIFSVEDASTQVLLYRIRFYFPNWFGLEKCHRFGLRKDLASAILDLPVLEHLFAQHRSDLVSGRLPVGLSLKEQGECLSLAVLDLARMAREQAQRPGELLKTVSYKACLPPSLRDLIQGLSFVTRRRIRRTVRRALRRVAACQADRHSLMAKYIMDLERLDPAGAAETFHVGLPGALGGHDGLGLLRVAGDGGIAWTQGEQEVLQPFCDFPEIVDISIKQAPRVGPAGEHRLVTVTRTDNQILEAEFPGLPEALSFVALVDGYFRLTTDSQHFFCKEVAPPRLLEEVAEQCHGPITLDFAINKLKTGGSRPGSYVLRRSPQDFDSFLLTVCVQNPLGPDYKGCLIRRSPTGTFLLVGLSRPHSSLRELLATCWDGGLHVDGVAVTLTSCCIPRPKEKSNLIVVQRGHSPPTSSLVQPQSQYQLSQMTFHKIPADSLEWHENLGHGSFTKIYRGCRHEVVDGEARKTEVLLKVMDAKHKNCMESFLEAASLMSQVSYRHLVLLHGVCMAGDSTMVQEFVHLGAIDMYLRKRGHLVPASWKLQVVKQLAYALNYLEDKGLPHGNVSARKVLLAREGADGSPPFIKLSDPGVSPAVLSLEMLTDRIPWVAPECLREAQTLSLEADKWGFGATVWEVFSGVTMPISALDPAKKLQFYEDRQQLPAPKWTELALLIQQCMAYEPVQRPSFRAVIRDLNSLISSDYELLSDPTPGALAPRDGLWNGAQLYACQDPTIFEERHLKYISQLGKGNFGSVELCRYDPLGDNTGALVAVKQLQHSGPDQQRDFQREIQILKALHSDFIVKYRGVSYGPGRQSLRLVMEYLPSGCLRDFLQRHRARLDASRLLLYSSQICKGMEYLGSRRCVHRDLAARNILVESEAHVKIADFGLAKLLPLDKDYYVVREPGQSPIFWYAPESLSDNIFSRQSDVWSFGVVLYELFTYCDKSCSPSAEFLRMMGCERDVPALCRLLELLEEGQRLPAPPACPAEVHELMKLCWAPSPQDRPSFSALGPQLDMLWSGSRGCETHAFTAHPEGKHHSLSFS

[9] = molecular target: Tyrosine-protein kinase JAK1 (Homo sapiens, UniProt P23458); test: Inhibition of human recombinant N-terminal hexahistidine tagged JAK1 JH1 catalytic domain (854 to 1154 residues) expressed in baculovirus infected Sf9 cells using Tyr6 peptide as substrate incubated for 30 secs under shaking condition measured after 1 hr by Z'-LYTE assay
Sequence of Tyrosine-protein kinase JAK1 (P23458 whole entry, the tested form may be a part): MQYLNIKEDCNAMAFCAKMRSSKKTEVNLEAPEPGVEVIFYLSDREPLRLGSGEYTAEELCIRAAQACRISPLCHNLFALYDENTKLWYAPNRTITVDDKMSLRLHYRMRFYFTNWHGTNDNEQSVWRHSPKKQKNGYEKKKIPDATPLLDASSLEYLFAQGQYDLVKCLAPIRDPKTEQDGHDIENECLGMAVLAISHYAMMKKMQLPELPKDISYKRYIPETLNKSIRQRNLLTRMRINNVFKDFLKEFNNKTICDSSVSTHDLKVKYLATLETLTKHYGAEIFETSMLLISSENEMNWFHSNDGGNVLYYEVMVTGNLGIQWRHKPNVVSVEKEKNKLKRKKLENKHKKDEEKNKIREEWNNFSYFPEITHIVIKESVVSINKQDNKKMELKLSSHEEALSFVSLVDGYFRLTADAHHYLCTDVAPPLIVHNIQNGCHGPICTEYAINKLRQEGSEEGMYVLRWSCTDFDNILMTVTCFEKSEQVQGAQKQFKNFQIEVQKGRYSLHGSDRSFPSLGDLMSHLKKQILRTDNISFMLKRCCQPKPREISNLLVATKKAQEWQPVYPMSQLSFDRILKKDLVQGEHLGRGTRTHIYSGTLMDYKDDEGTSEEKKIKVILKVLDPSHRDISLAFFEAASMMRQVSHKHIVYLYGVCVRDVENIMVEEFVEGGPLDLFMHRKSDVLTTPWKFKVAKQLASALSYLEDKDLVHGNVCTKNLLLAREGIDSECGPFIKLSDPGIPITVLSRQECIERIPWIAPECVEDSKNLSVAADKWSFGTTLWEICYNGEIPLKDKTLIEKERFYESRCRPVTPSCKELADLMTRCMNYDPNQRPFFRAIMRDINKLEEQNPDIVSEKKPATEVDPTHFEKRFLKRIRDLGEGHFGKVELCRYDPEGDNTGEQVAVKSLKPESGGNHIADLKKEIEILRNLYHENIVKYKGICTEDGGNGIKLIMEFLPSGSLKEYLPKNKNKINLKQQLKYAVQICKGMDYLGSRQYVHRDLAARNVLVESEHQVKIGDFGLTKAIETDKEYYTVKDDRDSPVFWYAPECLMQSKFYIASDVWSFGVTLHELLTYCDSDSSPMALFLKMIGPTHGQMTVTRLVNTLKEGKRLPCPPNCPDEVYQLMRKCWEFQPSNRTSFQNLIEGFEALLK

[10] = tested on: Rattus norvegicus; test: Antiarthritic activity in po dosed incomplete Freund's adjuvant-induced Wistar rat arthritic model assessed as reduction in foot swelling administered daily for 28 days starting from 8 days post-immunization measured daily during compound dosing; type: functional, organism-based
[11] = tested on: Rattus norvegicus; test: Antiarthritic activity in incomplete Freund's adjuvant-induced Wistar rat arthritic model assessed as decrease in arthritic incidences at 10 to 50 mg/kg, po administered daily for 28 days starting from 8 days post-immunization measured daily during compound dosing; type: functional, organism-based
[12] = tested on: Rattus norvegicus; test: Antiarthritic activity in incomplete Freund's adjuvant-induced Wistar rat arthritic model assessed as decrease in arthritis swelling score at 50 mg/kg, po administered daily for 28 days starting from 8 days post-immunization measured daily during compound dosing; type: functional, organism-based
[13] = Toxicity in incomplete Freund's adjuvant-induced Wistar rat arthritic model assessed as effect on body weight growth at 10 to 50 mg/kg, po administered daily for 28 days starting from 8 days post-immunization measured every 3 days during compound dosing; type: organism-based; details: in vivo
[14] = molecular target: T1, Tyrosine-protein kinase JAK2; details: Sf9
[15] = tested on: Rattus norvegicus; test: Antiarthritic activity in incomplete Freund's adjuvant-induced arthritis model Wistar rat at 0.3 mg/kg, po administered daily for 28 days starting from 8 days post-immunization measured daily during compound; type: functional, organism-based
[16] = Toxicity in incomplete Freund's adjuvant-induced Wistar rat arthritic model assessed as effect on body weight growth at 0.3 mg/kg, po administered daily for 28 days starting from 8 days post-immunization measured every 3 days during compound dosing; type: organism-based; details: in vivo

Compound: CC(Oc1cc(-c2cnn(C3CCNCC3)c2)cnc1N)c1c(Cl)ccc(F)c1Cl (stereo not drawn)
pIC50 [1]: 5.18

Compound: CC(Oc1cc(-c2ccc(N3CCNCC3)cc2)cnc1N)c1cc(F)ccc1Cl (stereo not drawn)
pIC50 [1]: 4.71

Compound: CC(Oc1cc(-c2ccccc2)cnc1N)c1cc(F)ccc1Cl (stereo not drawn)
pIC50 [1]: < 4.00

Compound: CC(Oc1cc(-c2cnn(C3CCNCC3)c2)cnc1N)c1ccccc1 (stereo not drawn)
pIC50 [1]: 4.53 | pIC50 [2]: 6.67

Compound: CC(Nc1cc(-c2cnn(C3CCNCC3)c2)cnc1N)c1c(Cl)ccc(F)c1Cl (stereo not drawn)
pIC50 [1]: 4.97 | pIC50 [2]: 6.90

Compound: CC(Oc1cc(-c2cnn(C3CCNCC3)c2)cnc1N)c1cc(F)ccc1Cl (stereo not drawn)
Activity [10]: Dose-dependent effect | pIC50 [1]: 4.82 | Ratio IC50 [4]: 110 | Activity [11]: Active | Ratio IC50 [5]: 86 | Activity [12]: Active | pIC50 [6]: 5.89 | Ratio IC50 [7]: 216 | pIC50 [2]: 8.22 | Activity [13]: Non-Toxic | pIC50 [8]: 6.29 | pIC50 [9]: 6.18

Compound: CC(Oc1cc(-c2cn[nH]c2)cnc1N)c1cc(F)ccc1Cl (stereo not drawn)
pIC50 [1]: 5.31 | Ratio IC50 [4]: 5 | Ratio IC50 [5]: 60 | pIC50 [6]: 5.84 | Ratio IC50 [7]: 91 | pIC50 [8]: 6.02 | pIC50 [9]: 7.09

Compound: CC(Oc1cc(-c2cnn(C3CCNCC3)c2)cnc1N)C1CCCCC1 (stereo not drawn)
pIC50 [1]: 4.68

Compound: CCC(Oc1cc(-c2cnn(C3CCNCC3)c2)cnc1N)c1c(Cl)ccc(F)c1Cl (stereo not drawn)
pIC50 [1]: 5.00

Compound: COc1ccc(F)cc1C(C)Oc1cc(-c2cnn(C3CCNCC3)c2)cnc1N (stereo not drawn)
pIC50 [1]: 5.38 | Ratio IC50 [4]: 598 | Ratio IC50 [5]: 528 | pIC50 [6]: 6.10 | Ratio IC50 [7]: 264 | pIC50 [8]: 5.80 | pIC50 [9]: 5.75

Compound: CC(Oc1cc(-c2cnn(C3CCNCC3)c2)cnc1N)c1c(Cl)cccc1Cl (stereo not drawn)
pIC50 [1]: 4.55

Compound: N#CC[C@H](C1CCCC1)n1cc(-c2ncnc3[nH]ccc23)cn1 [RUXOLITINIB]
pIC50 [1]: 5.12

Compound: CC(Oc1cc(-c2cccc(C3CCNCC3)c2)cnc1N)c1cc(F)ccc1Cl (stereo not drawn)
pIC50 [1]: 5.21

Compound: CC(Oc1cc(-c2ccc(C3CCNCC3)cc2)cnc1N)c1cc(F)ccc1Cl (stereo not drawn)
pIC50 [1]: 4.80

Compound: CN(Cc1cnc2nc(N)nc(N)c2n1)c1ccc(C(=O)N[C@@H](CCC(=O)O)C(=O)O)cc1 [METHOTREXATE]
Activity [15]: Active | Activity [16]: Toxic

Second part, led by results:

pIC50 [2]: 7.19
Compound: CC(Oc1cc(-c2cnn(C3CCOCC3)c2)cnc1N)c1c(Cl)ccc(F)c1Cl (stereo not drawn)
pIC50 [1]: < 4.00

inhibition [3]: 7.15%
Compound: CC(Oc1cc(-c2ccccc2)cnc1N)c1c(Cl)ccc(F)c1Cl (stereo not drawn)
pIC50 [1]: < 4.00

pIC50 [6]: 5.60 | pIC50 [8]: 5.55 | pIC50 [9]: 6.92
Compound: CC(Oc1cc(-c2cccc(N3CCNCC3)c2)cnc1N)c1cc(F)ccc1Cl (stereo not drawn)
pIC50 [1]: 5.14 | Ratio IC50 [4]: 4 | Ratio IC50 [5]: 107 | Ratio IC50 [7]: 94

pIC50 [2]: 6.92
Compound: CC(Oc1cc(-c2cncc(N3CCNCC3)c2)cnc1N)c1c(Cl)ccc(F)c1Cl (stereo not drawn)
pIC50 [1]: 5.13

pIC50 [2]: 5.52
Compound: CC(Oc1cc(-c2cccnc2)cnc1N)c1c(Cl)ccc(F)c1Cl (stereo not drawn)
pIC50 [1]: 4.70

ΔTm [14]: 7.88 °C
Compound: C[C@@H](Oc1cc(-c2cnn(C3CCNCC3)c2)cnc1N)c1c(Cl)ccc(F)c1Cl [CRIZOTINIB]
pIC50 [1]: 5.33

pIC50 [6]: 6.11 | pIC50 [2]: 7.59 | pIC50 [8]: 5.75 | pIC50 [9]: 5.91
Compound: COc1ccc(F)c(Cl)c1C(C)Oc1cc(-c2cnn(C3CCNCC3)c2)cnc1N (stereo not drawn)
pIC50 [1]: 4.87 | Ratio IC50 [4]: 46 | Ratio IC50 [5]: 66 | Ratio IC50 [7]: 30

pIC50 [2]: 6.09
Compound: CC(Oc1cc(-c2ccc(N3CCNCC3)nc2)cnc1N)c1c(Cl)ccc(F)c1Cl (stereo not drawn)
pIC50 [1]: 5.11
